This is an account of results in patent US8563236B2, “Mutational profiles in HIV-1 reverse transcriptase correlated with phenotypic drug resistance” (priority 1999, dated 2013).

SMILES strings stand for the structures. A value given as a limit tells only on which side of the number the result lay.

Common to all, as to format: cell-based, HIV-1
Test [1] has as its system mutants carrying mutation 184V. The experiment in a line: Drug susceptibility assay, site-directed mutants (group statement). Particulars: high resistance caused by mutation 184V. The protocol: Phenotypic analysis was performed using the recombinant virus assay. See Kellam, P., and B. A. Larder. Antimicrob Agents Chemother 38:23-30 (1994); Hertogs, K., et al., Agents Chemother. 42:269-276 (1998); Pauwels, R., et al., Abstracts of the 2nd International Workshop on HIV Drug Resistance and Treatment Strategies, Abstr. 51. Lake Maggiore, Italy (1998). Briefly, protease (PR) and reverse transcriptase (RT) coding sequences were amplified from patient-derived viral RNA with HIV-1 specific primers. After homologous recombination of amplicons into a PR-RT deleted proviral clone, the resulting recombinant viruses were harvested, titrated and used for in vitro susceptibility testing to antiretroviral drugs. The results of this analysis were expressed as fold-resistance values, reflecting the fold-increase in mean IC50 (μM) of a particular drug when tested with patient-derived recombinant virus isolates, relative to the mean IC50 (μM) of the same drug obtained when tested with a reference wild-type virus isolate (IIIB/LAI).
For the modeling studies, mutations were generated in the RT gene of HXB2, a wild-type laboratory HIV-1 strain, using the QuikChange^J Site-Directed Mutagenesis Kit, Stratagene^7, Stratagene Cloning systems, La Jolla, Calif., USA.
Two of them carried both 44D/A and 181I, while all but one (SDM23) carried ZDV resistance-correlated mutations. […]

In a further test the test system is wild-type HXB2-D virus. The experiment in a line: MT-4 cell CPE protection assay, wild-type control virus. On the procedure:
(§1) Mutations were created in HIV-1 RT by site-directed mutagenesis and the mutant RT was then transferred into the HXB2-D wild-type virus background. The specific mutations created in this background are indicated. The nucleoside susceptibility of mutant viruses (fold increase in IC50 value relative to wild-type HXB2-D virus control) was assessed as described in ‘Methods’.
(§2) MT-4 cells (Harada S., et al, Science 229: 563-566 (1985).) were co-transfected with pol gene PCR fragments and the protease-RT deleted HIV-1 molecular clone, pGEM3ΔPRT, as described. See Hertogs K., et al., Antimicrob. Agents Chemother. 42: 269-276 (1998). […] Phenotypic susceptibility to nucleoside analogues was determined using an MT-4 cell viral cytopathic effect (CPE) protection assay as described. Id. Fold resistance values were derived by dividing the mean IC50 for a patient's recombinant virus by the mean IC50 for wild-type control virus (strain HXB2-D).
(§3) Mutations in the RT coding region were created by site-directed mutagenesis of a wild-type HXB2-D EcoRI-PstI restriction enzyme fragment, encompassing the HIV-1 pol gene and cloned into pGEM3 (Promega). Single and multiple nucleotide changes were introduced into RT using the ExSite mutagenesis kit (Strategene). All mutant clones were verified by DNA sequence analysis of the entire RT. PCR fragments were prepared from the mutated clones and the altered RT coding regions were transferred into the HIV-1 HXB2-D genetic background by homologous recombination as described above. The susceptibility of these recombinant viruses to nucleoside analogues was subsequently determined by the MT-4 cell CPE protection assay. Id.

In test [2] the test system is HXB2-D virus with RT 69S-[S-S]. Description: MT-4 cell CPE protection assay, site-directed mutant virus. On the procedure: as §1, §2, §3
Test [3] concerns HXB2-D virus with RT 210W, 215Y, 62V. Described as above. The protocol:
as §1, §2, §3

In test [4] the test system is HXB2-D virus with RT 210W, 215Y. The description is as above. The protocol:
as §1, §2, §3

For test [5], the system named is HXB2-D virus with RT 69S-[S-S], 210W, 215Y, 62V. The description is as above. On the procedure:
as §1, §2, §3

The subject of test [6] is HXB2-D virus with RT 69S-[S-S], 210W, 215Y. The test is described as above. On the procedure:
as §1, §2, §3

Test [7] relates to variants with the 69S-[S-S] insert plus AZT resistance mutations. The experiment in a line: MT-4 cell CPE protection assay, site-directed mutant viruses (group statement). The protocol: as §2
as §3, with “Id. […]” for “Id.”

Test [8] concerns samples with AZT and 3TC resistance mutations plus T69A/N or V175M. The experiment in a line: Recombinant virus assay, MDR patient-derived recombinant HIV variants.
Description: (§4) FIG. 2: Nucleoside analogue susceptibility of MDR patient-derived recombinant HIV variants. Recombinant viruses were produced from patient plasma samples as described in Example 2 and tested for susceptibility to (a) d4T, (b) ddC and (c) ddI. […] Error bars indicate standard errors. Note that the total number (n=310) is higher than the 302 MDR samples described because a small minority were 69D/N and 75M double mutants and are represented in both groups.
as §2
(§5) From this analysis, 302 samples were identified with four-fold or greater increases in IC50 (relative to a wild-type control virus) to at least four of these inhibitors. Thus, a substantial number of MDR viruses were present in the sample population.
Genotypic analysis was performed on all 892 samples by dideoxy-nucleotide sequencing. […]

Test [9] deals with HXB2-D virus with T69A or V75M in a background of AZT mutations. The experiment in a line: MT-4 cell CPE protection assay, site-directed mutant viruses. On the procedure: as §2, §3
To investigate the significance of the observed mutational patterns correlated with MDR virus we constructed a series of viruses by site-directed mutagenesis with specific changes in a defined genetic background (HXB2-D). […] In addition, the potential role of A62V, a substitution also frequently correlated with the insertions was investigated by adding this mutation to a background of 69S-[S-S] plus 210W/215Y.

For test [10], the system named is codon 69 insertion mutants.
Description: as §4, §2, §5
(§6) Genotypic analysis was performed on all 892 samples by dideoxy-nucleotide sequencing. […] A comparison of the incidence of specific RT mutations in MDR samples versus non-MDR in the population surveyed is shown in FIG. 1. This analysis highlighted the incidence of the codon 151 mutational cluster in the MDR group. In addition, a novel family of amino acid insertions and rearrangements between codons 67 and 70 were also prevalent in the MDR group. These two patterns of mutations were correlated with high-level phenotypic multi-nucleoside resistance (FIG. 2), 27 samples having the codon 151 cluster and 45 samples having insertions and rearrangements (typically a T69S substitution, followed by insertion of two amino acids).

Test [11] relates to codon 151 cluster viruses.
Description: as §4, §2, §5, §6

[12] abbreviates: Human immunodeficiency virus 1, MT4, mean values.

In the case of `Nc1ccn([C@@H]2CS[C@H](CO)O2)c(=O)n1` [3TC, lamivudine], the “resistance (fold)” value in test [1] is recorded as over 62 fold. Moreover, the IC50 – broadly, the midpoint of a concentration-inhibition curve – in the test with wild-type HXB2-D virus (setting [12]) came to 1.67 µM. Besides, the “Fold increase in IC50” value in [2] ({}) turned out to be 6.2 fold; in test [3] ({}), 1.3 fold; in test [4] ({}), 3.8 fold; in test [5] ({}), 15 fold; in [6] ({}) it was 20 fold.
`Cc1cn([C@H]2C[C@H](N=[N+]=[N-])[C@@H](CO)O2)c(=O)[nH]c1=O` [AZT, zidovudine]: the “susceptibility” value in [7] is “decreased susceptibility”.
As to `Nc1nc(NC2CC2)c2ncn(C3C=CC(CO)C3)c2n1` (stereo not drawn) [compound 1592, 4-[(2-amino-6-cyclopropyl-amino)-9H-purin-9-yl]-2-cyclopentene-1-methanol], in [7], the “susceptibility” value was “decreased susceptibility”. The IC50 in the test on wild-type HXB2-D virus (mean values) is 2.9 µM. The “Fold increase in IC50” value is given as 2.6 fold in test [2] (mutant genotype 69S-[S-S], relative to wild-type HXB2-D, mean of two determinations); 0.7 fold in test [3] (mutant genotype 210W, 215Y, 62V, relative to wild-type HXB2-D, mean of two determinations); 1.5 fold in [4] (mutant genotype 210W, 215Y, relative to wild-type HXB2-D, mean of two determinations); 5.4 fold in test [5] (mutant genotype 69S-[S-S], 210W, 215Y, 62V, relative to wild-type HXB2-D, mean of two determinations); 4.6 fold in test [6] (mutant genotype 69S-[S-S], 210W, 215Y, relative to wild-type HXB2-D, mean of two determinations).
In the case of `Cc1cn([C@H]2C=C[C@@H](CO)O2)c(=O)[nH]c1=O` [d4T, stavudine], in the test with wild-type HXB2-D virus (setting [12]), the IC50 stood at 2.39 µM. The “Fold increase in IC50” value in test [2] ({}) is given as 2.3 fold; in test [3] ({}), 0.7 fold; in [4] ({}) it was 1.1 fold; in test [5] ({}), 5.2 fold; in test [6] ({}) it was 4.8 fold. Besides, the “level of resistance” value in test [8] is “modest levels of resistance”. In addition, the “resistance conferred” value in test [9] is “little or no resistance”. Also, the “mean fold increase in IC50 (resistance)” value in test [10] and in [11] was over 10 fold each time.
Consider `Nc1ccn([C@H]2CC[C@@H](CO)O2)c(=O)n1` [ddC, zalcitabine], for which the IC50 in the test on wild-type HXB2-D virus (setting [12]) was determined as 1.41 µM. Also, the “Fold increase in IC50” value worked out at 2.1 fold in [2] ({}); 0.8 fold in test [3] ({}); 1.2 fold in [4] ({}); 2.7 fold in test [5] ({}); 4.2 fold in test [6] ({}). The “level of resistance” value in test [8] was “modest levels of resistance”. Also, in test [9], the “resistance conferred” value was “little or no resistance”. For the same compound, the “mean fold increase in IC50 (resistance)” value in [10] and in test [11] was over 10 fold throughout.
Take `O=c1[nH]cnc2c1ncn2[C@H]1CC[C@@H](CO)O1` [ddI, didanosine]: in the test with wild-type HXB2-D virus (setting [12]), the IC50 was found to be 4.6 µM. The “Fold increase in IC50” value in test [2] ({}) came to 1.7 fold; in [3] ({}), 0.5 fold; in test [4] ({}), 1.2 fold; in test [5] ({}) it was 1.8 fold; in test [6] ({}), 2.1 fold. For the same compound, in test [9], the “resistance conferred” value was “little or no resistance”.
